Patent US20070112018A1, “Treatment of peripheral arterial occlusive disease” (priority 2005, published 2007)
Values after ≈ are worked out from the molar mass of the structure shown.

Tests used:
physchem = type: physicochemical
Method: Rifalazil is a highly lipophilic molecule having limited solubility in water at physiological pH (approximately 200 ng/mL). Evidence of the highly lipophilic behavior of the molecule is illustrated in the partition coefficient (n-octanol:water) of between 70, 569 and over 900,000 in different experiments (Log P range; 4.9-5.9).

C. pneumoniae = assay: Potency against C. pneumoniae compared with roxithromycin
Text: The use of rifalazil in the treatment of PAOD is supported by both preclinical and clinical lines of evidence.

[1] = Non-clinical oral pharmacokinetics in the beagle dog; type: in vivo
Method: In rats and dogs, the Vdβ/F following oral administration was 40-80 L/kg. […] The highest mean Cmax observed was in the wall of the GI tract and occurred approximately 1 hour post-dose. […] A large tissue compartment of rifalazil is considered important for efficacy against Chlamydia given the intracellular nature of Chlamydia infection.

[2] = Phase 1 single-dose study (2.5, 5, 12.5, 25 mg), adverse events; type: in vivo, human
Method: Several Phase 1 studies of rifalazil administration have been carried out using 25 mg single doses. In one such study, sixteen patients received single doses of 25 mg. Overall, 75% of patients (12/16) reported treatment-emergent adverse events (AEs). […] However, for all dose groups, the incidence of AEs was higher for females than for males, and this difference was also observed in the placebo group. At 25 mg, […] of females (31/39) and 55% of males (16/29) reported treatment-emergent AEs. The AEs with an incidence greater than or equal to 10% were: […]

[3] = Single 25-mg dose under three food conditions in healthy male adults, adverse events; type: in vivo, human
Method: In another study, a single 25-mg oral dose of rifalazil was administered to healthy male adults under one of three distinct food conditions: a high fat meal (60% fat), standard meal (30% fat), and under fasting conditions. No placebo-control was used in this study. Twelve subjects were enrolled, 10 of whom received all doses of rifalazil. Although high fat meal conditions result in higher plasma levels of rifalazil, the incidence of AEs was similar across all food conditions. A total of 83% of subjects (10/12) experienced treatment-emergent AEs, all of mild to moderate intensity. Fifty-eight percent were considered by the investigator to be drug-related. The most common reported drug-related AEs were back pain (25%) and headache (17%), and these were reported only in subjects under fed conditions. All other study medication-related AEs were reported by one subject (8%) only.

[4] = Healthy volunteers, 25 or 50 mg once a week for 4 weeks, adverse events; type: in vivo, human
Method: In one study, healthy volunteers received 25 or 50 mg once a week for 4 weeks. The overall incidence of AEs was 33% after the first weekly dose, 12% after the second and third weekly dose, and 0% at the fourth weekly dose. No subject discontinued the study due to AEs, and no serious AEs were reported in this study. The predominant AEs reported in the rifalazil group but not in the placebo group included: back pain (2/6. 33%), chills (3/6, 50%), neck pain (1/6. 17%), insomnia, and a range of gastrointestinal (GI) disturbances such as anorexia, nausea, thirst and vomiting (all in 1/6 patients, 17%).
The lowest individual value for subjects receiving 25 mg/week was 2.2×10^3/mm^3 (Day 25), and for 50-mg/week subjects, 2.3×10^3/mm^3 (Day 11). All values returned to baseline within 2 weeks of cessation of dosing. […] The above normal values at 50 mg/week occurred in 1 subject, and were of moderate Grade 2 severity during the interval from approximately Day 15 to Day 78. […] All values returned to baseline levels within 2 weeks of cessation of dosing.
The phenomenon of accommodation or tolerance with repeat weekly dosing of rifalazil became evident during the course of the study for both the 25-mg and 50-mg doses. In the 25-mg dosage group, the peak incidence of AEs occurred in the first week and decreased substantially over the remaining weeks.

[5] = human, in vivo
Method: In another study, three dose levels of rifalazil were administered for the treatment of non-gonococcal urethritis in 170 male patients. Doses used were in this study were single-doses of 2.5, 12.5 mg and 25 mg. Males were between 18-45 years of age with signs or symptoms of urethritis, including urethral discharge.

Compound: CO[C@H]1/C=C/O[C@@]2(C)Oc3c(C)c(O)c4c(=O)c(c5oc6cc(N7CCN(CC(C)C)CC7)cc(O)c6nc-5c4c3C2=O)NC(=O)/C(C)=C\C=C\[C@H](C)[C@H](O)[C@@H](C)[C@@H](O)[C@@H](C)[C@H](OC(C)=O)[C@@H]1C [rifalazil, 3′-hydroxy-5′-(4-isobutyl-1-piperazinyl) benzoxazinorifamycin]
- partition coefficient (n-octanol:water) (physchem): 70, 569-900,000
- logP (physchem; n-octanol:water, different experiments, read-out: Log P range): 4.9 to 5.9
- solubility (physchem; pH 7.4, aqueous buffer, physiological pH, read-out: solubility in water): ~0.2 µg/mL (≈ 0.213 µM)
- potency against C. pneumoniae relative to roxithromycin (C. pneumoniae): 2000 times
- Vdβ/F ([1]; dogs, oral administration): 40 to 80 L/kg
- bioavailability ([1]; plasma, po, beagle dog, 10 mg/kg): 16 to 17%
- males reporting treatment-emergent AEs ([2]; at 25 mg (16/29)): 55%
- females reporting treatment-emergent AEs ([2]; at 25 mg (31/39)): 88%
- incidence of Bacteria in urine ([2]; single dose 25 mg): 19%
- incidence of Blood present in urine ([2]; single dose 25 mg): 13%
- incidence of Body temperature increased ([2]; single dose 25 mg): 25%
- incidence of Headache ([2]; single dose 25 mg): 38%
- incidence of Lymphocyte count decreased ([2]; single dose 25 mg): 31%
- incidence of Monocyte count increased ([2]; single dose 25 mg): 13%
- incidence of Nausea ([2]; single dose 25 mg): 13%
- incidence of Neutrophil count increased ([2]; single dose 25 mg): 13%
- incidence of Pharyngitis ([2]; single dose 25 mg): 13%
- incidence of White blood cells (WBCs) in urine ([2]; single dose 25 mg): 19%
- patients reporting treatment-emergent adverse events ([2]; single dose 25 mg, 16 patients): 75%
- AEs considered by the investigator to be drug-related [3]: Fifty-eight
- all other study medication-related AEs (each, one subject) [3]: 8%
- subjects experiencing treatment-emergent AEs ([3]; all food conditions (10/12)): 83%
- drug-related back pain ([3]; only under fed conditions): 25%
- drug-related headache ([3]; only under fed conditions): 17%
- subjects with low WBC counts ([4]; 25 mg/week): three of six
- tolerability ([4]; 25 mg/week): fairly well tolerated
- lowest individual WBC value ([4]; 25 mg/week, Day 25): 2.2×10^3 /mm^3
- subjects with low WBC counts ([4]; 50 mg/week): 6 of 8
- tolerability ([4]; 50 mg/week): not considered well tolerated
- lowest individual WBC value ([4]; 50 mg/week, Day 11): 2.3×10^3 /mm^3
- mean AST and ALT values ([4]; 50 mg/week, not in the 25 mg/week group): transient increase
- subjects with Grade 4 lymphocyte toxicity ([4]; 25-mg/week): 1 subject
- time for WBC values to return to baseline after cessation of dosing ([4]; 25 and 50 mg/week): ≤ 2 weeks
- subjects with Grade 4 lymphocyte toxicity ([4]; 50-mg/week): 3 subjects
- overall incidence of AEs ([4]; after the first weekly dose): 33%
- overall incidence of AEs ([4]; after the second and third weekly dose): 12%
- overall incidence of AEs ([4]; at the fourth weekly dose): 0%
- neck pain ([4]; rifalazil group (1/6)): 17%
- back pain ([4]; rifalazil group (2/6)): 33%
- chills ([4]; rifalazil group (3/6)): 50%
- insomnia, anorexia, nausea, thirst and vomiting (each) ([4]; rifalazil group (all in 1/6 patients)): 17%
- asthenia ([4]; rifalazil-treated groups): 33%
- dizziness ([4]; rifalazil-treated groups): 50%
- fever ([4]; rifalazil-treated groups): 67%
- headache ([4]; rifalazil-treated groups): 67%
- pain ([4]; rifalazil-treated groups): 50%
- deaths, serious AEs, or discontinuations due to AEs [5]: No deaths, serious AEs, or discontinuations due to AEs
- incidence of AEs considered possibly related to study drug ([5]; male): 23%
- incidence of clinically significant laboratory abnormalities ([5]; male): 21%
